Measured values taken from US7138486B2, “Insulinotropic hormone derivatives and uses thereof” (The General Hospital Corporation, priority 1986, dated 2006).

Assay: Biological half-life

Question: Which half-life does the source give for `CC[C@H](C)[C@H](NC(=O)[C@H](Cc1ccccc1)NC(=O)[C@H](CCC(=O)O)NC(=O)[C@H](CCCCN)NC(=O)[C@H](C)NC(=O)[C@H](C)NC(=O)[C@H](CCC(N)=O)NC(=O)CNC(=O)[C@H](CCC(=O)O)NC(=O)[C@H](CC(C)C)NC(=O)[C@H](Cc1ccc(O)cc1)NC(=O)[C@H](CO)NC(=O)[C@H](CO)NC(=O)[C@@H](NC(=O)[C@H](CC(=O)O)NC(=O)[C@H](CO)NC(=O)[C@@H](NC(=O)[C@H](Cc1ccccc1)NC(=O)[C@@H](NC(=O)CNC(=O)[C@H](CCC(=O)O)NC(=O)[C@H](C)NC(=O)[C@H](Cc1cnc[nH]1)NC(=O)[C@H](CCCNC(=N)N)NC(=O)[C@H](CCC(=O)O)NC(=O)[C@H](Cc1ccccc1)NC(=O)[C@H](CCC(=O)O)NC(=O)[C@H](CC(=O)O)NC(=O)[C@@H](N)Cc1cnc[nH]1)[C@@H](C)O)[C@@H](C)O)C(C)C)C(=O)N[C@@H](C)C(=O)N[C@@H](Cc1c[nH]c2ccccc12)C(=O)N[C@@H](CC(C)C)C(=O)N[C@H](C(=O)N[C@@H](CCCCN)C(=O)NCC(=O)N[C@@H](CCCNC(=N)N)C(=O)NCC(=O)O)C(C)C` [GLP-1(1-37)] here?
Answer: 15 to 20 min
